Source: US10294202B2, “Pyrrolidinones as herbicides” (FMC Corporation, priority 2013, dated 2019)

Legend:
[1] = test system: rice; assay: Test B flooded paddy test; assay type: in vivo, Oryza sativa; conditions: Flood, scale of 0 to 100 where 0 is no effect and 100 is complete control
Summary of the method: (§1)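 Plants were grown to the 2-leaf stage, then pots were flooded to 3 cm above the soil and compound was applied directly into the paddy water, with that depth held throughout. After 13 to 15 days in a greenhouse, injury was rated visually against untreated controls on a 0 to 100 scale (100 = complete control).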

[2] = test system: corn; assay: Test A pre-/postemergence herbicide test; assay type: in vivo, Zea mays
Summary of the method: (§2)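 Both application timings used compounds in a non-phytotoxic solvent plus surfactant. Pre-emergence: soil sprayed directly after seeding into loam/sand. Post-emergence: foliage of 2–10 cm seedlings (1–2 leaves) sprayed. Injury rated ~10 days later, 0–100.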

[3] = test system: ducksalad; assay: Test B flooded paddy test; assay type: in vivo, Heteranthera limosa; conditions: Flood, scale of 0 to 100 where 0 is no effect and 100 is complete control
Summary of the method: as §1

[4] = test system: sedge, umbrella; assay: Test C flooded paddy test; assay type: in vivo, Cyperus difformis; conditions: Flood
Summary of the method: (§3)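 Plants grown to the 2-leaf stage; pots flooded to 3 cm above soil and compound applied directly into the paddy water, depth kept throughout. Greenhouse 13 to 15 days, then visual rating vs untreated controls on 0–100 scale (0 no effect, 100 complete control); dash means no result.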

[5] = test system: velvetleaf; assay: Test A pre-/postemergence herbicide test; assay type: in vivo, Abutilon theophrasti
Summary of the method: as §2

[6] = test system: rice; assay: Test C flooded paddy test; assay type: in vivo, Oryza sativa; conditions: Flood
Summary of the method: as §3

[7] = test system: barnyardgrass; assay: Test B flooded paddy test; assay type: in vivo, Echinochloa crus-galli; conditions: Flood, scale of 0 to 100 where 0 is no effect and 100 is complete control
Summary of the method: as §1

[8] = test system: barnyardgrass; assay: Test A pre-/postemergence herbicide test; assay type: in vivo, Echinochloa crus-galli
Summary of the method: as §2

[9] = test system: ducksalad; assay: Test C flooded paddy test; assay type: in vivo, Heteranthera limosa; conditions: Flood
Summary of the method: as §3

[10] = test system: barnyardgrass; assay: Test C flooded paddy test; assay type: in vivo, Echinochloa crus-galli; conditions: Flood
Summary of the method: as §3

[11] = test system: sedge, umbrella; assay: Test B flooded paddy test; assay type: in vivo, Cyperus difformis; conditions: Flood, scale of 0 to 100 where 0 is no effect and 100 is complete control
Summary of the method: as §1

[12] = test system: wheat; assay: Test A pre-/postemergence herbicide test; assay type: in vivo, Triticum aestivum
Summary of the method: as §2

[13] = test system: giant foxtail; assay: Test A pre-/postemergence herbicide test; assay type: in vivo, Setaria faberii
Summary of the method: as §2

[14] = test system: crabgrass, large; assay: Test A pre-/postemergence herbicide test; assay type: in vivo, Digitaria sanguinalis
Summary of the method: as §2

[15] = test system: pigweed; assay: Test A pre-/postemergence herbicide test; assay type: in vivo, Amaranthus retroflexus
Summary of the method: as §2

[16] = test system: morningglory; assay: Test A pre-/postemergence herbicide test; assay type: in vivo, Ipomoea spp.
Summary of the method: as §2

[17] = test system: ragweed; assay: Test A pre-/postemergence herbicide test; assay type: in vivo, Ambrosia elatior; conditions: for Plant response rating, Ragweed: 0 to 100 scale
Summary of the method: as §2

[18] = test system: galium; assay: Test A postemergence herbicide test; assay type: in vivo, Galium aparine
Summary of the method: (§4)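 Plants at the one- to two-leaf stage, 2–10 cm tall, grown in loam/sand pots, received postemergence sprays of the test chemicals. After about 10 days in the greenhouse, injury was scored visually against untreated controls on a 0–100 scale (0 none, 100 complete control).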

[19] = test system: blackgrass; assay: Test A postemergence herbicide test; assay type: in vivo, Alopecurus myosuroides
Summary of the method: as §4

[20] = test system: kochia; assay: Test A pre-/postemergence herbicide test; assay type: in vivo, Kochia scoparia; conditions: for Plant response rating, Kochia: 0 to 100 scale
Summary of the method: as §2

[21] = test system: ryegrass, Italian; assay: Test A pre-/postemergence herbicide test; assay type: in vivo, Lolium multiflorum; conditions: for Plant response rating, Ryegrass, Italian: 0 to 100 scale
Summary of the method: as §2

[22] = Postemergence, 125 g ai/ha, 0 to 100 scale, 0 no effect, 100 complete control
[23] = Postemergence, 500 g ai/ha, 0 to 100 scale (0 no effect, 100 complete control)
[24] = Preemergence, 125 g ai/ha, visual rating on 0 to 100 scale (0 no effect, 100 complete control)
[25] = preemergence, 500 g ai/ha, 0 to 100 scale
[26] = 125 g ai/ha, scale of 0 to 100 where 0 is no effect and 100 is complete control, 13 to 15 days
[27] = Postemergence, 125 g ai/ha, 0 to 100 scale, 0 is no effect, 100 is complete control
[28] = 250 g ai/ha, scale of 0 to 100 where 0 is no effect and 100 is complete control, 13 to 15 days
[29] = 125 g ai/ha, visual rating, 0 no effect, 100 complete control, approximately 10 days, preemergence
[30] = Postemergence, 125 g ai/ha, 0 is no effect, 100 is complete control
[31] = preemergence, 500 g ai/ha, 0 is no effect and 100 is complete control
[32] = 125 g ai/ha, visual rating, 0 to 100 scale, 0 no effect, 100 complete control, approximately 10 days, preemergence
[33] = preemergence, 500 g ai/ha, 0 to 100 scale, 0 is no effect and 100 is complete control
[34] = 125 g ai/ha, 0 to 100 scale, 0 is no effect, 100 is complete control

O=C1NCC(c2ccc(Cl)cc2)C1C(=O)Nc1ccccc1F (racemic) [Compound 87]
95: Plant response rating, Ducksalad ([9]; 250 g ai/ha, scale 0 to 100)
100: Plant response rating, Ducksalad ([9]; 500 g ai/ha, scale 0 to 100) | Plant response rating, Ducksalad ([9]; 1000 g ai/ha, scale 0 to 100)
20: Barnyardgrass plant response rating [8, 24] | Plant response rating, Wheat [12, 23] | Plant response rating, Pigweed [15, 23]
25: Plant response rating, Barnyardgrass ([10]; 500 g ai/ha, scale 0 to 100)
90: Plant response rating, Foxtail, Giant [13, 25] | Plant response rating, Crabgrass, Large [14, 25]
10: Plant response rating, Wheat [12, 25] | Plant response rating, Morningglory [16, 23]
0: Plant response rating, Rice ([1]; 250 g ai/ha) | Plant response rating, Corn [2, 22] | Plant response rating, Corn [2, 23] | Corn plant response rating [2, 24] | Plant response rating, Corn [2, 25] | Plant response rating, Sedge, Umbrella [4, 26] | Plant response rating, Sedge, Umbrella ([4]; 250 g ai/ha, scale 0 to 100) | Plant response rating, Sedge, Umbrella ([4]; 500 g ai/ha, scale 0 to 100) | Plant response rating, Sedge, Umbrella ([4]; 1000 g ai/ha, scale 0 to 100) | Plant response rating, Velvetleaf [5, 22] | Plant response rating, Velvetleaf [5, 23] | Velvetleaf plant response rating [5, 24] | Plant response rating, Velvetleaf [5, 25] | Plant response rating, Rice [6, 26] | Plant response rating, Rice ([6]; 250 g ai/ha, scale 0 to 100) | Plant response rating, Rice ([6]; 500 g ai/ha, scale 0 to 100) | Plant response rating, Barnyardgrass [10, 26] | Plant response rating, Barnyardgrass ([10]; 250 g ai/ha, scale 0 to 100) | Plant response rating, Sedge, Umbrella ([11]; 250 g ai/ha) | Plant response rating, Wheat [12, 22] | Wheat plant response rating [12, 24] | Plant response rating, Pigweed [15, 22] | Pigweed plant response rating [15, 24] | Plant response rating, Pigweed [15, 25] | Plant response rating, Morningglory [16, 22] | Morningglory plant response rating [16, 24] | Plant response rating, Morningglory [16, 25]
60: Plant response rating, Barnyardgrass ([7]; 250 g ai/ha) | Foxtail, Giant plant response rating [13, 24] | Plant response rating, Crabgrass, Large [14, 22]
40: Plant response rating, Barnyardgrass ([10]; 1000 g ai/ha, scale 0 to 100)
80: Plant response rating, Ducksalad ([3]; 250 g ai/ha) | Plant response rating, Barnyardgrass [8, 23] | Plant response rating, Barnyardgrass ([8]; preemergence, 500 g ai/ha, 0 to 100 scale (0 no effect, 100 complete control)) | Plant response rating, Foxtail, Giant [13, 23] | Plant response rating, Crabgrass, Large [14, 23] | Crabgrass, Large plant response rating [14, 24]
50: Plant response rating, Barnyardgrass [8, 22] | Plant response rating, Foxtail, Giant [13, 22]
75: Plant response rating, Ducksalad [9, 26]
30: Plant response rating, Rice ([6]; 1000 g ai/ha, scale 0 to 100)

CC(C)(C)c1cccc(C2CNC(=O)C2C(=O)Nc2cccc(F)c2F)c1 (racemic) [Compound 200]
40: Plant response rating, Barnyardgrass ([10]; 500 g ai/ha, scale 0 to 100) | Foxtail, Giant plant response rating (0 to 100 scale, 0 is no effect, 100 is complete control) ([13]; Postemergence, 500 g ai/ha)
20: Corn plant response rating (0 to 100 scale, 0 is no effect, 100 is complete control) ([2]; Postemergence, 500 g ai/ha) | Wheat plant response rating (0 to 100 scale, 0 is no effect, 100 is complete control) ([12]; Postemergence, 500 g ai/ha) | Plant response rating, Foxtail, Giant [13, 27]
0: Plant response rating, Corn [2, 27] | Plant response rating, Sedge, Umbrella [4, 26] | Plant response rating, Sedge, Umbrella [4, 28] | Plant response rating, Sedge, Umbrella ([4]; 500 g ai/ha, scale 0 to 100) | Plant response rating, Sedge, Umbrella ([4]; 1000 g ai/ha, scale 0 to 100) | Plant response rating, Ragweed [17, 29] | Plant response rating, Ragweed [17, 30] | Ragweed plant response rating (0 to 100 scale, 0 is no effect, 100 is complete control) ([17]; Postemergence, 500 g ai/ha) | Plant response rating, Ragweed [17, 31] | Plant response rating, Rice [6, 26] | Plant response rating, Rice [6, 28] | Plant response rating, Rice ([6]; 500 g ai/ha, scale 0 to 100) | Plant response rating, Rice ([6]; 1000 g ai/ha, scale 0 to 100) | Plant response rating, Sedge, Umbrella ([11]; 1000 g ai/ha) | Plant response rating, Wheat [12, 27] | Plant response rating, Galium [18, 34] | Galium plant response rating (0 to 100 scale, 0 is no effect, 100 is complete control) ([18]; 500 g ai/ha) | Plant response rating, Pigweed [15, 32] | Plant response rating, Pigweed [15, 27] | Pigweed plant response rating (0 to 100 scale, 0 is no effect, 100 is complete control) ([15]; Postemergence, 500 g ai/ha) | Plant response rating, Pigweed [15, 33] | Plant response rating, Blackgrass [19, 34] | Blackgrass plant response rating (0 to 100 scale, 0 is no effect, 100 is complete control) ([19]; 500 g ai/ha) | Plant response rating, Kochia [20, 29] | Plant response rating, Kochia [20, 30] | Kochia plant response rating (0 to 100 scale, 0 is no effect, 100 is complete control) ([20]; Postemergence, 500 g ai/ha) | Plant response rating, Kochia [20, 31] | Plant response rating, Ryegrass, Italian [21, 29] | Plant response rating, Ryegrass, Italian [21, 30] | Ryegrass, Italian plant response rating (0 to 100 scale, 0 is no effect, 100 is complete control) ([21]; Postemergence, 500 g ai/ha) | Plant response rating, Ryegrass, Italian [21, 31]
90: Barnyardgrass plant response rating (0 to 100 scale, 0 is no effect, 100 is complete control) ([8]; Postemergence, 500 g ai/ha) | Plant response rating, Barnyardgrass [8, 33]
25: Plant response rating, Barnyardgrass [10, 28]
85: Plant response rating, Barnyardgrass ([7]; 1000 g ai/ha)
80: Plant response rating, Foxtail, Giant [13, 33]
95: Plant response rating, Ducksalad ([3]; 1000 g ai/ha)
100: Plant response rating, Ducksalad ([9]; 500 g ai/ha, scale 0 to 100) | Plant response rating, Ducksalad ([9]; 1000 g ai/ha, scale 0 to 100)
15: Plant response rating, Rice ([1]; 1000 g ai/ha) | Plant response rating, Barnyardgrass [10, 26]
60: Plant response rating, Barnyardgrass [8, 32]
55: Plant response rating, Barnyardgrass ([10]; 1000 g ai/ha, scale 0 to 100)
70: Plant response rating, Barnyardgrass [8, 27] | Plant response rating, Ducksalad [9, 26] | Plant response rating, Ducksalad [9, 28]
30: Plant response rating, Foxtail, Giant [13, 32]
